{"source": "paper doi:10.1101/2020.08.03.235622v1", "about": "(bioRxiv, 2020)", "key": {"flagella (fliC)": {"test_system": "flagella (fliC)", "conditions": "cited from earlier work"}, "[1]": {"test_system": "P. aeruginosa T3SS gene transcription (exoT, exoS, dsbA)", "assay": "qPCR of T3SS genes in P. aeruginosa", "type": "cell-based, Pseudomonas aeruginosa", "conditions": "60 μM cyclic peptomer; for transcription of exoT: PA103, low calcium, 50 μM MBX1641, 3 hrs"}, "[2]": {"test_system": "P. aeruginosa PAO1 T3SS (ExoS, ExsE)", "type": "cell-based, Pseudomonas aeruginosa"}, "P. aeruginosa PA103 T3SS": {"test_system": "P. aeruginosa PA103 T3SS", "type": "cell-based, Pseudomonas aeruginosa"}, "HeLa cells": {"test_system": "HeLa cells", "assay": "Host cell viability by LDH release", "type": "cell-based, human", "conditions": "9 μM, infected HeLa cells"}, "Salmonella SPI-1 T3SS": {"test_system": "Salmonella SPI-1 T3SS", "type": "cell-based, Salmonella enterica Typhimurium"}}, "note": "Where two headings read alike, the source gives them in different places."}
{"molecule": "O=[N+]([O-])c1cc(CN2CCN(c3ccccc3)CC2)c(O)c2ncccc12", "note": "[INP1750]", "values": [{"measurement": "lowest known inhibitory concentration (~), fliC/fla", "setting": "flagella (fliC)", "value": "~80", "unit": "µM"}]}
{"molecule": "O=[N+]([O-])c1cc(CN2CCN(c3ccc(F)cc3)CC2)c(O)c2ncccc12", "note": "[INP1855]", "values": [{"measurement": "lowest known inhibitory concentration (~), fliC/fla", "setting": "flagella (fliC)", "value": "~30", "unit": "µM"}]}
{"molecule": "CC(Oc1ccc(Cl)cc1Cl)C(=O)NCc1ccc2c(c1)OCO2", "note": "(centres unmarked) [MBX1641, reference compound]", "values": [{"measurement": "transcription of exoT", "setting": "[1]", "value": "did"}]}
{"molecule": "Propylamine, Benzylamine, D-Leu, L-Ile, L-Leu, and D-Phe (PBDLLD) (head to tail) [1EpDN]", "values": [{"measurement": "amount of secreted ExoS", "setting": "[2]", "value": "significantly reduced"}, {"measurement": "transcription of exoT", "setting": "[1]", "value": "did not inhibit transcription of exoT"}, {"measurement": "IC50", "setting": "P. aeruginosa PA103 T3SS; read-out: IC50, inhibition of T3SS effector (ExoU) secretion in P. aeruginosa", "value": "~8", "unit": "µM"}]}
{"molecule": "Propylamine, Benzylamine, L-Leu, L-Ile, D-Leu, and D-Phe (PBLLDD) (head to tail) [4EpDN]", "values": [{"measurement": "amount of secreted ExoS", "setting": "[2]", "value": "significantly reduced"}, {"measurement": "secretion of the regulator ExsE", "setting": "[2]", "value": "did not significantly impact secretion"}, {"measurement": "expression of the effectors exoS and exoT", "setting": "[1]; P. aeruginosa PAO1 lacking all known efflux pumps, 3 hrs", "value": "did not affect expression"}, {"measurement": "host cell viability as assayed by LDH release", "setting": "HeLa cells", "value": "without affecting host cell viability"}, {"measurement": "T3SS inhibitory activity (ExoU secretion), in words", "setting": "P. aeruginosa PA103 T3SS", "value": "improved activity"}, {"measurement": "IC50", "setting": "P. aeruginosa PA103 T3SS; read-out: IC50, ExoU secretion (PA, Psc/Ysc)", "value": 3.9, "unit": "µM"}, {"measurement": "concentration at which inhibition of SipA secretion was observed", "setting": "Salmonella SPI-1 T3SS", "value": "~ 1.4 μM"}, {"measurement": "concentration at which inhibition of SipC secretion was observed", "setting": "Salmonella SPI-1 T3SS", "value": "~ 1 μM"}]}
